Measurements reported in ChEMBL document CHEMBL3507680, “University of Dundee, Gates Library screen for HepG2 cell viability”.

Test: Human HepG2 cell viability assay in 384 well format
Format: toxicity, cell-based
Set-up: dose 125 nL, time 70.5 hour; cytotoxicity at 70.5 h: concentration not given beside the values
Details: HepG2 cells, read-out: Inhibition

Going from O=C1CN(S(=O)(=O)c2ccc(F)cc2)CC(O)CN1CC1CC1 (stereo unspecified) to CNS(=O)(=O)c1ccc(CN2CCC(c3ccncc3)CC2)cc1, the cytotoxicity at 70.5 h falls from -9.49% to -14.4%.

First: CCOCCN1Cc2cnn(C)c2C(COCC)C1 (stereo unspecified)
Second: Cn1nccc1CCC(=O)N1CCOC(c2cnccn2)C1 (stereo unspecified)
The cytotoxicity at 70.5 h of the first is higher: 8.6% for the first, -12.6% for the second.

Compared with Cc1nc(CN2C[C@@H]3CN(C(=O)[C@H]4CCCO4)C[C@@H]3C2=O)cs1, Cc1ccc(NC(=O)N2CCCC2)c(OCC2CCCO2)c1 (stereo unspecified) is lower in cytotoxicity at 70.5 h: -8.74% for the first, -16.8% for the second.

Going from CN1CCCC1c1nnc2n1CCN(S(=O)(=O)c1ccccc1Cl)CC2 (stereo unspecified) to CCc1nnc2n1CCN(CC(=O)N1CCc3ccccc3C1)C2, the cytotoxicity at 70.5 h rises from -8.1% to 28.5%.

Compared with CCC(NS(C)(=O)=O)c1ccccc1OC (stereo unspecified), COc1cccc(S(=O)(=O)NC(=O)C2CC(c3ccccc3)=NO2)c1 (stereo unspecified) is lower in cytotoxicity at 70.5 h: -1.94% for the first, -9.7% for the second.

Going from Brc1ccc(NCCCOC2CCOCC2)nc1 to N#CC1(NC(=O)c2cc(Cl)ccc2OC(F)F)CCOCC1, the cytotoxicity at 70.5 h falls from -1.01% to -17.7%.

Compared with Cc1nc(C2CCN(Cc3ncc[nH]3)CC2)no1, Cc1noc(COCC(=O)N2CCCC(c3nccs3)C2)n1 (stereo unspecified) is lower in cytotoxicity at 70.5 h: 19.7% for the first, -6.88% for the second.

Going from CCN(CC1CCOC1)C(=O)c1cn2ccc(C)cc2n1 (stereo unspecified) to CCN(CC)C(=O)[C@@H]1C[C@@H](N)CN1c1nc(N(C)C)nc(C)c1C, the cytotoxicity at 70.5 h rises from -16.3% to 2.56%.

First: CN(C)CCNC(=O)c1cc2c(s1)CCN2S(C)(=O)=O
Second: CC(=O)N1CCCc2cc(Nc3nccn(C)c3=O)ccc21
The cytotoxicity at 70.5 h of the first is lower: -9.71% for the first, -7.29% for the second.

Compared with CC(C)(C)c1ncc2c(n1)CN(c1cc(NCCO)nc(N)n1)C2, CC(C)Oc1cc(N2C[C@H](C3CC3)[C@@H](N)C2)nc(N)n1 is lower in cytotoxicity at 70.5 h: -12% for the first, -25.3% for the second.

Going from O=C1NCCO[C@H]2CN(C(=O)CC3Cc4ccccc4C3)CC[C@@H]12 to CC1CCN(C(=O)C2CCCN(C(=O)Nc3ccccn3)C2)CC1 (stereo unspecified), the cytotoxicity at 70.5 h rises from -9.87% to -9.24%.

First: CCc1[nH]c2c(CNC(=O)C3CCS(=O)(=O)CC3)cc(C)cc2c1C
Second: CCc1nnsc1C(=O)N1CCCC(c2nc3ccccc3[nH]2)C1 (stereo unspecified)
The cytotoxicity at 70.5 h of the first is higher: -7% for the first, -14.3% for the second.

First: CCn1nc(C)c2ncnc(N(C)Cc3ccco3)c21
Second: Cc1nc(C)c(CN2CCOC(CNc3cccnn3)C2)s1 (stereo unspecified)
The cytotoxicity at 70.5 h of the first is higher: -1.38% for the first, -5.6% for the second.

Going from COC(=O)c1ccc(C(=O)NS(=O)(=O)c2cncc(Br)c2)cc1 to O=C(Cc1ccccc1Br)NCC(=O)Nc1cn[nH]c1, the cytotoxicity at 70.5 h falls from -3.96% to -6.36%.

First: O=C(NC1CCCN(c2ccccc2Cl)C1)c1ccc(=O)[nH]n1 (stereo unspecified)
Second: O=C(Cn1cccn1)Nc1ccc(N2CCCCC2)cc1
The cytotoxicity at 70.5 h of the first is lower: -12.6% for the first, 31.5% for the second.

Going from CCCOc1cc(CNC(=O)Nc2ccccn2)ccn1 to Cc1cnn(CCNCc2nc(CNC(=O)c3ccccc3)no2)c1, the cytotoxicity at 70.5 h falls from 45.7% to 22.6%.

Compared with COC1CC2(CCN(Cc3nccn3C)CC2)C1, Cc1cc(C(=O)N2CCCN(Cc3cnn(C)c3)CC2)no1 is higher in cytotoxicity at 70.5 h: -5.43% for the first, -3.47% for the second.

Going from CN(CCc1ccccc1)Cc1cnc(C2(C)CCCCO2)nc1 (stereo unspecified) to COCCN(CCOC)C(=O)c1ccn(-c2ccc3ccccn23)n1, the cytotoxicity at 70.5 h rises from 1.38% to 11.4%.

First: Cc1cccc(CN2C(=O)C[C@H]3[C@@H]2CCN3Cc2nccs2)n1
Second: Cn1cnc2c1CCN(Cc1csc(C3CCCC3)n1)C2
The cytotoxicity at 70.5 h of the first is lower: -22.3% for the first, -9.44% for the second.

Going from O=C(NC1CCCCC1)[C@H]1CNC[C@@H](COc2cccnc2)C1 to Cc1ccc(C2CCCCCN2C(=O)Nc2cn[nH]c2)o1 (stereo unspecified), the cytotoxicity at 70.5 h falls from -3.95% to -6.84%.

Going from CC(C)n1ncc2c1NC(=O)CC2c1ccccc1Cl (stereo unspecified) to Cc1cc2ccccc2n1CC(=O)NC(C)C(=O)N1CCOCC1 (stereo unspecified), the cytotoxicity at 70.5 h falls from -6.71% to -8.04%.

First: CN(Cc1nnc(C2CC2)o1)CC1CCCN1c1cccnn1 (stereo unspecified)
Second: O=S(=O)(C1CC1)N1CC[C@H](OCC2CC2)[C@@H]1Cc1ccncc1
The cytotoxicity at 70.5 h of the first is lower: -9.18% for the first, -4.87% for the second.

Compared with Cc1ccc(CNC(=O)c2ccc(F)cc2)o1, COc1coc(C(=O)Nc2nc(C)cs2)cc1=O is lower in cytotoxicity at 70.5 h: -8.9% for the first, -15.8% for the second.
